# Measured values reported in patent US9504674B2, “TrkB agonists and methods of use” (EMORY UNIVERSITY, priority 2010, dated 2016).
# What was measured:
# [1] = target: T1, TrkB F616A (Mus musculus, UniProt P15209, F616A); test: Forced swim test in TrkB F616A knockin mice with or without 1NMPP1; format: in vivo; settings: TrkB F616A knockin mice, control groups without TrkB agonist
# T1 construct: from tissue; host or cells: TrkB F616A knock-in mice (brain; whole animal in the forced swim test)
# Procedure: Male TrkB knockin mice were given the regular drinking water or 1NMPP1 (25 μM) containing drinking water one day before we started to inject the drugs and sustained throughout the whole experiment. The indicated control (saline) and drugs were administrated for 5 days. […] None of the drugs produced a significant change in 1NMPP1 treated TrkB KI mice (n=6 to 7 mice) as compared to control.
# TrkB F616A knockin mice were used to assess whether the behavior responses by 7,8-DHF and its derivative is mediated by TrkB receptor. Transgenic mice were subjected to saline or 1NMPP1 pretreatment, respectively.
# [2] = target: T2, TrkB (Rattus norvegicus, UniProt Q63604); test: TrkB phosphorylation in primary rat cortical neurons (immunoblotting); format: cell-based; settings: primary rat cortical neurons; for TrkB activation (phosphorylation) compared to vehicle control: 500 nM compound, 20 min, immunoblotting
# T2 construct: endogenous in cells; host or cells: primary rat cortical neurons (E17 embryos, 13 DIV)
# T2 sequence (Q63604 32-821): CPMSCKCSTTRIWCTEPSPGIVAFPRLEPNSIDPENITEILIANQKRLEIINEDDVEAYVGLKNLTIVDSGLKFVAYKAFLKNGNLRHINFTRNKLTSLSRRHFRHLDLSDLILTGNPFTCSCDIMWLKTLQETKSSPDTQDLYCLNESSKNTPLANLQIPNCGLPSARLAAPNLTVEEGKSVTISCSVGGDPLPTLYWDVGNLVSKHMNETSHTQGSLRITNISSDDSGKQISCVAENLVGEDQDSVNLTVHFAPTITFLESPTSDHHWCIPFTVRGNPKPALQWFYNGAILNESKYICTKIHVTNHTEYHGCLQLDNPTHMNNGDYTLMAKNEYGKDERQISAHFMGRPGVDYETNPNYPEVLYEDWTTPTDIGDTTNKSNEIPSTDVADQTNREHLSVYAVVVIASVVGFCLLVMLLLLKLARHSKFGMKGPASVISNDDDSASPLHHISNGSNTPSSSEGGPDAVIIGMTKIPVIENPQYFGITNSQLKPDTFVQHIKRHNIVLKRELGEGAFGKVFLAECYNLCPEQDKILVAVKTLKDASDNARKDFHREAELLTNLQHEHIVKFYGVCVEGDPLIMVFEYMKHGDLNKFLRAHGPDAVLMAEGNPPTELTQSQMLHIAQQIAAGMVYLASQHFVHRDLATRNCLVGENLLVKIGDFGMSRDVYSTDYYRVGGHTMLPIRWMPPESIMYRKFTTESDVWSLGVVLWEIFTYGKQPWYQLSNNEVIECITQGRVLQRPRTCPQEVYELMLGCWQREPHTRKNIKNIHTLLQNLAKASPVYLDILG
# Procedure: (§1) Primary rat cortical neurons from E17 embryos (13 DIV) were treated with 500 nM various chemicals for 15 min. The neuronal cell lysates were collected and resolved on 10% SDS-PAGE. Immunoblotting was conducted with various antibodies. p-TrkB Y817 antibody was employed at 1:20000-40000 dilution.
# as §1, with “days in vitro (DIV))” for “DIV)”, “1:20,000-40,000 dilution (top panel). Equal amount of TrkB was loaded in all of the samples (middle panel). P-Akt 473 ELISA analysis with the neuronal lysates (bottom panel).” for “1:20000-40000 dilution.”
# 7,8-dihydroxyflavone (7,8-DHF) is a small molecular TrkB agonist. Preliminary structure-activity relationship study (SAR) supports that 7,8-catechol moiety is essential for the agonistic effect by 7,8-DHF. To explore the structure-activity relationship (SAR) in depth, the TrkB stimulatory activity was examined by numerous flavonoid derivatives. The numeric positions and each ring's nomenclature are designated (FIG. 1A). Compounds were dissolved in DMSO, then diluted into […] with 1× PBS (final vehicle contains 10% DMSO/PBS) (FIG. 1B). Primary rat cortical neurons were treated with 500 nM compounds for 20 min. The cell lysates were analyzed by immunoblotting. […] Downstream activation of the TrkB target Akt was tightly correlated with TrkB activation patterns by these derivatives (FIG. 1C, bottom panel). As observed, the hydroxy groups on B ring can regulate 7,8-DHF's stimulatory activity on TrkB receptor. As 2′-hydroxy, especially 3′-hydroxy group, elevates the agonistic effect, whereas 4′-hydroxy group diminishes its stimulatory effect.
# To compare the TrkB activation by these synthetic compounds, primary cortical cultures were prepared. Cortical neurons were treated with 500 nM of various compounds for 20 min and cell lysates were collected. […] Replacing the H-bond acceptor O atom with hydrogen bond donor NH abolishes its stimulatory effect. […] On the other hand, 7,8-DHF provoked TrkB activation with the minimal concentration of 100 nM (FIG. 2B, right panels). To further study 4′-DMA-7,8-DHF's kinetics on TrkB activation, primary neurons were treated for various time points. 4′-DMA-7,8-DHF swiftly activated TrkB as soon as 5 minutes following treatment. […] To compare the stimulatory effect on TrkB receptor in mouse brains, 1 mg/kg of the synthesized derivatives were injected into C57BL/6J mice. TrkB activation was monitored at different time points.
# Additional compounds are listed as designated from a to m (FIG. 6A). The compounds were dissolved in DMSO, then diluted into 500 μM with 1× PBS (final vehicle contains 10% DMSO/PBS). The primary rat cortical neurons (13 DIV) were treated with 500 nM compounds for 20 min. The cell lysates were analyzed by immunoblotting. […] Moreover, p-Akt ELISA was monitored to quantitatively analyze the agonistic activities of these compounds.
# T1 sequence (P15209 32-821 F616A): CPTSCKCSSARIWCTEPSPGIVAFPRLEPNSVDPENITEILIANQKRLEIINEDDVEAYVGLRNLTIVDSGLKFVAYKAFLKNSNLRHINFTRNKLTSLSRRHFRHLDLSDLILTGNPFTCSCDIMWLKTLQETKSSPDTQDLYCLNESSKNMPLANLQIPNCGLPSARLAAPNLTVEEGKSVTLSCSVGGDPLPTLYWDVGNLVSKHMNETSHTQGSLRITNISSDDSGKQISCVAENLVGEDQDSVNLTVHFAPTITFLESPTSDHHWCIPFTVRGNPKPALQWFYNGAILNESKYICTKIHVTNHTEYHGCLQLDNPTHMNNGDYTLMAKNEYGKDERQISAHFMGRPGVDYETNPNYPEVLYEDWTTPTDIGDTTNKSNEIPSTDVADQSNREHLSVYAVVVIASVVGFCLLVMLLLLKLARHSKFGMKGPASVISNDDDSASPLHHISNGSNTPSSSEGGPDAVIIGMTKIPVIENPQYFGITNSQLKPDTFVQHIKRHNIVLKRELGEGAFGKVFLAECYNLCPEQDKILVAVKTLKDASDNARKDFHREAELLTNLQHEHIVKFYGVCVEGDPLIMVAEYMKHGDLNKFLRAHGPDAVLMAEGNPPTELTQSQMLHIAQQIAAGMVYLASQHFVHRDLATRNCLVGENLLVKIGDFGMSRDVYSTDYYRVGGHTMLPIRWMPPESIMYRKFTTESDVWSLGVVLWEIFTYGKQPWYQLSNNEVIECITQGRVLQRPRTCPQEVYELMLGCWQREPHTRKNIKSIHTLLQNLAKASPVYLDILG
molecule,measurement,setting,value
CC(C)(C)n1nc(Cc2cccc3ccccc23)c2c(N)ncnc21 [1NMPP1],"immobility time, 1NMPP1 treated versus saline control group",[1],No significant difference
"O=c1c(O)c(-c2ccc(O)c(O)c2)oc2c(O)c(O)cc(O)c12 [3,5,7,8,3′,4′-hexahydroxylatedflavone, reference compound]",TrkB activation (phosphorylation) compared to vehicle control,[2],completely blocked TrkB phosphorylation
"O=c1c(O)c(-c2ccccc2O)oc2c(O)c(O)ccc12 [3,7,8,2′-tetrahydroxyflavone]",TrkB activation (phosphorylation) compared to vehicle control,[2],stimulated TrkB activation
"O=c1c(O)c(-c2ccccc2)oc2cc(O)ccc12 [3,7-dihydroxyflavone]",TrkB activation (phosphorylation) compared to vehicle control,[2],stimulated TrkB activation
"O=c1cc(-c2ccccc2)oc2c(O)c(O)cc(O)c12 [5,7,8-trihydroxyflavone]",TrkB activation (phosphorylation) compared to vehicle control,[2],stimulated TrkB activation
"O=c1cc(-c2cccc(O)c2)oc2cc(O)ccc12 [7,3′-dihydroxyflavone]",TrkB activation (phosphorylation) compared to vehicle control,[2],even more robust stimulatory effect on TrkB phosphorylation than the lead
"O=c1cc(-c2ccccc2O)oc2c(O)c(O)ccc12 [7,8,2′-trihydroxyflavone]",TrkB activation (phosphorylation) compared to vehicle control,[2],stimulated TrkB activation
"O=c1cc(-c2cccc(O)c2)oc2c(O)c(O)ccc12 [7,8,3′-trihydroxyflavone]",TrkB activation (phosphorylation) compared to vehicle control,[2],even more robust stimulatory effect on TrkB phosphorylation than the lead
"O=c1cc(-c2ccc(O)cc2)oc2c(O)c(O)ccc12 [7,8,4′-trihydroxyflavone, reference compound]",TrkB activation (phosphorylation) compared to vehicle control,[2],barely activated TrkB
"COc1ccc(-c2cc(=O)c3ccc(O)cc3o2)cc1 [7-hydroxy-4′methoxyflavone, reference compound]",TrkB activation (phosphorylation) compared to vehicle control,[2],barely activated TrkB
"COc1ccc2c(=O)cc(-c3ccccc3)oc2c1O [8-hydroxy-7-methoxyflavone, reference compound]",TrkB activation (phosphorylation) compared to vehicle control,[2],barely activated TrkB
"O=c1cc(-c2ccc(F)cc2)[nH]c2c(O)c(O)ccc12 [#2, 2-(4-fluorophenyl)-7,8-dihydroxyquinolin-4(1H)-one]",TrkB activation (phosphorylation) compared to vehicle control,[2],failed to provoke TrkB activation
"O=c1cc(-c2ccccc2)[nH]c2c(O)c(O)ccc12 [#3, 7,8-dihydroxy-2-phenylquinolin-4(1H)-one]",TrkB activation (phosphorylation) compared to vehicle control,[2],failed to provoke TrkB activation
"O=c1cc(-c2cncnc2)oc2c(O)c(O)ccc12 [#4, 7,8-dihydroxy-2(pyrimidin-5-yl)-4H-chromen-4-one]",TrkB activation (phosphorylation) compared to vehicle control,[2],strongly activated TrkB
"BDNF: brain-derived neurotrophic factor, from Roche (protein, UniProt P23560 19-247, looked up) Neurotrophic factor BDNF …: APMKEANIRGQGGLAYPGVRTHGTLESVNGPKAGSRGLTSLADTFEHVIEELLDEDQKVRPNEENNKDADLYTSRVMLSSQVPLEPPLLFLLEEYKNYLDAANMSMRVRRHSDPARRGELSVCDSISEWVTAADKKTAVDMSGGTVTVLEKVPVSKGQLKQYFYETKCNPMGYTKEGCRGIDKRHWNSQCRTTQSYVRALTMDSKKRIGWRFIRIDTSCVCTLTIKRGR",TrkB activation (phosphorylation),[2]; BDNF 100 ng/ml,strongly activated TrkB
